The numbers were not newly measured in PMC5907794 (Journal of Medicinal Chemistry, 2018), which cites them from elsewhere.

For data set [1] the following is noted: ref 60−63.
The conditions of data set [2]: ref 60−62.

Each structure is given as a SMILES string.

On to `CC(=O)O[C@H]1C(=O)[C@@]2(C)[C@H]([C@H](OC(=O)c3ccccc3)[C@]3(O)C[C@H](OC(=O)[C@H](O)[C@@H](NC(=O)c4ccccc4)c4ccccc4)C(C)=C1C3(C)C)[C@]1(OC(C)=O)CO[C@@H]1C[C@@H]2O` [Paclitaxel, paclitaxel], for which the Dose-limiting side effects entry in data set [1] is recorded as “severe dose-limiting side effects”. For the same compound, the “Solubility in aqueous media (in words)” value in data set [2] is on record as “low solubility in aqueous media”.
